Data on 1 compound can be found in patent US20130028987A1, “Method of treating psoriasis” (priority 2011, published 2013).

This assay relates to phosphorylase kinase. In words: inhibition of phosphorylase kinase activity. The conditions noted are these: findings of the instant inventor; no experiment described. It counts as biochemical.

Molecules are shown by their SMILES.

For the compound `COc1cc(/C=C/C(=O)CC(=O)/C=C/c2ccc(O)c(OC)c2)ccc1O` [Curcumin], the “inhibition of phosphorylase kinase” value is “selective and non-competitive inhibitor of phosphorylase kinase”.
